Assays:
[1] = blood; cited from earlier work
[2] = system: db/db mice; test: food intake and post-prandial blood glucose, db/db mice; format: in vivo
Description: (§1) Mice (N=5 per group) were conditioned to eat once daily (9-10 am) for five days. […] Food intake and blood glucose levels were measured 2, 4, 7 and 24 h after peptide administration.

[3] = c-Fos activation in brain after IP injection; format: in vivo, mice; settings: IP 1 nmol/kg
Description: (§2) Briefly, mice that received IP injections were anesthetized with isoflurane 2 h later and the mice that received ICV injections were anesthetized 1.5 and 24 h later. Intracardiac perfusion with ice-cold 4% paraformaldehyde was immediately carried out. Brains were removed immediately at the end of perfusion, kept in ice-cold 4% parafor maldehyde for 72 h, and then transferred to a solution containing 4% paraformaldehyde and 25% sucrose until they floated. Each brain as cut into 30 μm sections using a sliding microtome with a freezing stage. Brain sections from each animal were placed in a 12-well plate and then processed for immunocytochemistry. The free-floating sections from each animal were first incubated in 0.3% H2O2 for 30 min and then washed 3 times in PBS for 5 min/rinse. Thereafter the sections were incubated in blocking serum (normal goat serum/PBS/0.1% Triton) for 45 min at room temperature. The sections were stained for c-Fos with an antibody directed against the amino acid residues 4-17 in rabbit anti-human c-Fos (Calbiochem, 1:30,000) for 48 h at 4° C. The sections were then washed 6 times with PBS/0.1% Triton before incubation for 1.5 h at room temperature with biotinylated goat anti-rabbit IgG (1:600) in blocking serum (Vector Laboratories). Thereafter the sections were visualized with DAB (Vectastain ABC kit) and developed until the color reached the required intensity in the control sections. The reaction was stopped by immersion of the slides in distilled water. After the staining was completed, sections were mounted on superfrost slides (Fisher Scientific), air-dried for 1-2 days and coverslipped with Permount. Sections were examined using light microscopy to identify c-Fos-positive cells.

[4] = system: c-Fos; test: c-Fos activation in brain after IP injection; format: in vivo, mice
Description: as §2

[5] = system: RIN 1046-38 cells; test: insulin secretion in RIN 1046-38 cells; format: cell-based; settings: rat insulinoma cells, concentration-dependent
Description: Rat insulinoma cell line, RIN1046-38 cells, was obtained from Dr. Samuel A. Clark and cultured with 5% CO2 at 37° C. in M199 medium (Cellgro) as previously described (Wang et al., 2001, Endocrinology, 142: 1820-1827). […] Exendin-9-39 (1 μmol/l: Bachem), an inhibitor of the GLP-1R. was also added overnight to one set of experiments. The supernatant was then collected and saved at −80° C. for determination of insulin content by ELISA (Crystal Chems). Cells were lysed and the protein content was quantified using the Bradford method.

[6] = system: isolated rat islets; test: insulin secretion in isolated rat islets; format: cell-based; settings: concentration-dependent
Description: Islets from Sprague-Dawley rats were isolated as we previously described, with some modification (Wang et al., 1997, J. Clin. Invest. 99: 2883-2889). Briefly, pancreata were digested by Collagenase Type XI (Sigma) and islets separated through a Ficoll-Paque gradient (Amersham Biosciences). The isolated islets were washed several times using Hanks Balanced Salts Solution (Biosource) containing 0.2% bovine serum albumin (BSA, Sigma), hand-picked and cultured overnight with 5% CO2 at 37° C. in M199 medium supplemented with 5 mM glucose. Rat islets were then treated similarly to (30-40 per well) to RIN cells as described above.

[7] = GLP-1-Tf in serum of cynomolgus monkeys (Example 4); format: in vivo, cynomolgus monkeys (Macaca fascicularis); settings: cAMP in CHO/GLP-1R
[8] = system: non-diabetic mice; test: IPGTT in non-diabetic mice after IP administration; format: in vivo; settings: IP 1 and 10 mg/kg
Description: Intraperitoneal (IP) glucose tolerance testing (IPGTT) (0.5 g/kg body weight) was carried out after an overnight fast in non-diabetic mice. Tf and GLP-1-Tf were administered IP 30 min before the glucose injection. Blood glucose levels (Glucometer Elite, Bayer) were measured at 0, and 30 and 60 min and plasma insulin levels at 0 and 30 min after the IPGTT.

[9] = system: non-diabetic mice; test: blood glucose after SC administration, ad libitum fed non-diabetic mice; format: in vivo
[10] = system: diabetic db/db mice; test: overnight fast and IPGTT in diabetic mice after SC administration; format: in vivo
Description: A group of diabetic mice were given Tf or GLP-1-Tf via SC administration at 9 pm, fasted overnight and an IPGTT performed the next morning. The fasted Tf-treated animals had lower fasting blood glucose than ad libitum fed animals (238±39 versus 358±23 mg/dl; compare 0 time/fasted animals of FIG. 10c with 0 time/fed animals of FIG. 10a), and additionally, the animals given 1 or […] had lower fasting blood glucose (132±27 mg/dl) than those given Tf alone.

[11] = system: non-diabetic mice; test: food intake and post-prandial blood glucose, non-diabetic mice; format: in vivo
Description: as §1

[12] = system: db/db mice; test: β-cell proliferation (BrdU) and β-cell mass in db/db mice; format: in vivo; settings: for increase in total β-cell mass: 10 mg/kg
Description: db/db mice, 6 per time point, received one IP injection of Tf (10 mg/kg) or GLP-1-Tf (10 mg/kg) and were sacrificed 1, 2 and 3 days later for measurement of β-cell proliferation and 3, 5, 8 and 10 days later for measurement of islet mass. Sixty mg/kg 5-bromo-2-deoxyuridine (BrdU, Sigma) was injected IP 6 hours before sacrifice. BrdU is a thymidine analog that is incorporated during S-phase of cell mitosis. Pancreata were removed, fixed overnight in 4% buffered formalin, processed for embedding in paraffin and histological sections (4 μm) mounted on poly-1-lysine-coated glass slides. BrdU was detected with a BrdU antibody (Sigma, 1:500 and also confirmed with Zymed antibody, 1:250) and BrdU staining kit (Zymed Laboratories Inc). Five to six hundred islets from each condition were then visualized and the number of islets that contained BrdU+ cells as well as the percent BrdU+ nuclei per total number of islet cells was quantified. For insulin staining and determination of β-cell mass histological sections were treated with a guinea-pig insulin antibody (Linco). Antibody binding was visualized with 3,3-diaminobenzidine (DAB) and sections counterstained with hematoxylin (Vectastain ABC kit, Vector Laboratories, using goat anti-guinea pig IgG). The sections were examined using a video camera connected to a computer with imaging software. Sectioned tissue images were acquired through a 2.5× objective of a phase contrast light microscope (Carl Zeiss) and digitized by means of a Sony Power HAD digital camera (an average of 20-30 images per section). The total pancreatic area and β-cell positive area for every image were quantified using MetaMorph 4.6.3 software (Universal Imaging Inc., West Chester).

[13] = system: c-Fos; test: c-Fos activation in brain after ICV injection; format: in vivo, mice
Description: Briefly, mice that received IP injections were anesthetized with isoflurane 2 h later and the mice that received ICV injections were anesthetized 1.5 and 24 h later. Intracardiac perfusion with ice-cold 4% paraformaldehyde was immediately carried out. Brains were removed immediately at the end of perfusion, kept in ice-cold 4% parafor maldehyde for 72 h, and then transferred to a solution containing 4% paraformaldehyde and 25% sucrose until they floated. Each brain as cut into 30 μm sections using a sliding microtome with a freezing stage. Brain sections from each animal were placed in a 12-well plate and then processed for immunocytochemistry. The free-floating sections from each animal were first incubated in 0.3% H2O2 for 30 min and then washed 3 times in PBS for 5 min/rinse. Thereafter the sections were incubated in blocking serum (normal goat serum/PBS/0.1% Triton) for 45 min at room temperature. The sections were stained for c-Fos with an antibody directed against the amino acid residues 4-17 in rabbit anti-human c-Fos (Calbiochem, 1:30,000) for 48 h at 4° C. […]
In another series of experiments, Tf and GLP-1-Tf were administered intracerebrovenitricular (ICV) and c-Fos activation assessed 1.5 and 24 hours later.

[14] = system: diabetic db/db mice
Description: Male diabetic db/db mice (C57BLKS/J-Lepr^db/Lepr^db) lacking a functioning leptin receptor and their non-diabetic heterozygous littermates were purchased at 4 weeks of age from Jackson Laboratories (Bar Harbor). They were housed, two per cage and fed ad libitum for at least five days before any testing. The same mice were caged together for the duration of the studies.
Plasma insulin levels were measured at 1 and 4 hours.

[15] = compared to hTf-treated animals
[16] = 10 mg/kg, 2 h after administration

For “Carbohydrate deficient transferrin: transferrin form elevated in the blood of alcoholic individuals”, the half life [1] is given as 14 to 17 days.

In the case of exendin-4 [reference compound], the “food intake in the remaining 17 h” value ([2]; 1 nmol/kg IP) is reported as “caused a decrease in food intake”, the “time for which essentially all measurable food consumption was prevented” value ([2]; 1 nmol/kg IP) is reported as 7 h and the “AP c-Fos response compared to GLP-1-Tf” value [3] is reported as “much more robust”. The “brain areas with c-Fos activation” value ([4]; IP 1 nmol/kg) was “activated similar areas to GLP-1-Tf in all injected animals”.

For “glycosylated transferrin: glycosylated serum transferrin”, the half life [1] is given as 7 to 10 days.

In the case of “pREX0585: nL GLP-1 (7-37; A8G, K34A) (PEAPTD)2 mTf; mTf lacking N-glycosylation at sites 413 and 611”, the insulin secretion [5] is reported as “stimulate insulin secretion”, the insulin secretion [6] is reported as “stimulate insulin secretion” and the “activity of GLP-1-Tf in serum from the injected monkeys on CHO/GLP-1R” value [7] is reported as “biologically active”. The insulin secretion ([8]; 30 min before glucose) was “enhanced insulin secretion”, the peak blood glucose ([8]; IPGTT) was “decreased” and the “time for blood glucose to rise to pre-administration levels” value [9] was no more than 24 h. For the same substance, the “blood glucose concentration and insulin secretion” value ([9]; ad libitum fed) was “dose-dependently reduced blood glucose concentration and increased insulin secretion”, the “persistence of low blood glucose” value ([9]; higher dose 10 mg/kg) was “up to 36 hours” and the blood glucose level ([9]; within 3 hours of administration) was 70 mg/dL. For the same substance, the fasting blood glucose ([10]; SC at 9 pm, fasted overnight, GLP-1-Tf 1 or 10 mg) was 132 ± 27 mg/dL, the “glucose levels after the IPGTT” value [10, 15] was “lower glucose levels” and the “plasma insulin levels after the IPGTT” value [10, 15] was “higher plasma insulin levels”. The “post-prandial blood glucose levels” value ([11]; 0.1, 1 and 10 mg/kg, compared to Tf only) was “lower”, the “time for which food intake was decreased by approximately half” value (from here on “time for which food intake was decreased”) ([11]; IP 1 mg/kg) was 2 h and the “time for which food intake was decreased” value ([11]; IP 10 mg/kg) was “up to 7 h”. The “post-prandial blood glucose levels” value ([2]; 0.1, 1 and 10 mg/kg, compared to Tf treatment) was “lowered post-prandial blood glucose levels”, the “time for which food intake was decreased” value ([2]; IP 1 and 10 mg/kg) was 2 h and the “number of BrdU+ nuclei in islets 24 hours after injection” value ([12]; 10 mg/kg IP, compared to Tf) was “clear increase in the number of BrdU+ nuclei”. The “islets with 1 or more BRDU+ nuclei” value ([12]; 10 mg/kg IP, third day) was “all islets”, the “increase in BRDU+ nuclei” value ([12]; 10 mg/kg IP, third day, vs Tf, p<0.01) was 4.7 fold and the “increase in total β-cell mass” value ([12]; 3 days, compared to Tf) was 1.7 fold. For the same substance, the “increase in total β-cell mass” value ([12]; 5 days, compared to Tf) was 2.2 fold, the “increase in total β-cell mass” value ([12]; 8 days, compared to Tf) was 4.1 fold and the “increase in total β-cell mass” value ([12]; 10 days, compared to Tf) was 4.3 fold. For the same substance, the “c-Fos activation, AP” value ([4]; 1 mg/kg) was 0/6, the “c-Fos activation, NTS” value ([4]; 1 mg/kg) was 6/6 and the “c-Fos activation, PVH” value ([4]; 1 mg/kg) was 6/6. The “c-Fos activation, area postrema (AP)” value [4, 16] was 4/6, the “c-Fos activation, nuclei of the solitary tract (NTS)” value [4, 16] was 6/6 and the “c-Fos activation, paraventricular nuclei of the hypothalamus (PVH)” value [4, 16] was 6/6. The “c-Fos activation ninety minutes after ICV injection” value ([13]; 1.5 h) was “c-Fos activation had occurred in PVH and NTS but not AP”, the “c-Fos activation 24 h after ICV injection” value ([13]; 24 h) was “not present in any of the three brain regions” and the “plasma insulin levels at 1 hour” value ([14]; SC 0.1 mg/kg) was “increased plasma insulin levels”. For the same substance, the “beginning of blood glucose effect after injection” value ([14]; SC 1 and 10 mg/kg) was 1 h, the “duration of increased plasma insulin levels” value ([14]; SC 1 and 10 mg/kg) was no less than 4 h and the blood glucose ([14]; SC both 1 and 10 mg/kg, ad libitum, from 358±23) was 115 ± 18 mg/dL. For the same substance, the “duration of effect on blood glucose” value ([14]; SC highest dose) was “at least 12 hours” and the “duration of blood glucose lowering” value ([14]; SC low dose 0.1 mg/kg) was 4 h.
